# Data reported in US11690828B2, “Treatment of CNS diseases with sGC stimulators” (Cyclerion Therapeutics, Inc., priority 2016, dated 2023).
# Tests used:
# Assay type in all cases: in vivo, rat
# Settings in all cases: Compound I-2 p.o. 10 mg/kg; 120 minutes after treatment
# [1] = system: rats; test: Carrageenan - paw pressure test
# Method: Paw Pressure Test. Static mechanical hyperalgesia is measured. This test requires the application of an increasing pressure on the hind paws between a flat surface and a blunt pointer. To evaluate the analgesic action of a compound, one hind paw of the animal was inflamed by an injection or injured by ligation, while the other hind paw was not injured or inflamed. The apparatus exerted a steadily increasing force on the hind paws. The reaction threshold was determined as the pressure (g) required to elicit paw withdrawal and/or vocalization. The animals were gently handled by the experimenter and static mechanical hyperalgesia were assessed two times for both hind paws.
# Carrageenan. Induction: Three hours before assessment of the nociceptive threshold using the paw pressure test 100 μL of a 2% carrageenan suspension was injected into the plantar aspect of the right hind paw. The Paw Pressure test was then conducted as described above.
# (§1) Testing: 120 minutes after treatment. N=4/model/test. Results are expressed for each group as a percentage of activity calculated from the mean value of the vehicle-treated animals and compared to naïve animals, control paw, or cut-off value, depending on the test.
# [2] = system: rats; test: Acetic acid test - abdominal cramps
# Method: Acetic Acid Test. Abdominal contraction was induced by intraperitoneal injection of 0.6% acetic acid solution in rats (10 mL/kg). The number of writhing (a twisting or contorting of the body due to pain) was recorded from the 5th to the 15th minute after injection.
# as §1
# [3] = system: rats; test: Kaolin - gait score
# Method: Kaolin. Induction: In rats, unilateral arthritis was induced by an intra-articular injection of a 10% kaolin suspension into the knee joint of the right hind paw under gas anesthesia (3.5% isoflurane/3 L/min). Gait score: The gait score will be evaluated 3 h 30 min after kaolin administration by:
# 2: intermittent raising of the paw
# as §1
# [4] = system: Healthy rats; test: Healthy rats - tail flick test
# Method: Tail Flick Test. A radiant heat was applied on the tail. When the rat felt discomfort, it reacted by a sudden tail movement (tail flick) which automatically stopped the stimulation and the timer for the measurement by the animal reaction time or nociceptive reaction latency (period from the beginning of the stimulation until detection of the response of the animal). A cut-off was previously fixed at 10 sec in order to prevent tissue damage.
# as §1
# [5] = system: rats; test: Oxaliplatin - acetone test (reaction time)
# Method: Oxaliplatin. Induction: Acute peripheral neuropathy was induced by a single intraperitoneal injection of oxaliplatin (6 mg/kg, i.p) 30 hours before testing. Acetone test: Cold allodynia was measured using the acetone test. In this test, the latency of hind paw withdrawal was measured after application of a drop of acetone (50 μL) to the plantar surface of both hind paws three times for both hind paws alternatively with intervals of approximately 2-3 min.
# as §1
# [6] = system: rats; test: TNBS - colorectal distension
# Method: TNBS. Surgery: Colonic sensitivity was induced by surgical administration of TNBS seven days before behavioral testing (D−7). Fasted (overnight) animals underwent surgery. Briefly, under anesthesia (Xylazine 10 mg/kg i.p., ketamine 60 mg/kg i.p.), injection of TNBS (50 mg/kg, 1 mL/kg) was performed into the proximal part of the colon (1 cm from the caecum). After surgery, animals returned in their home cages in a regulated environment, and were fed ad libitum until D−1 (animals were fasted 24 hours before distention). Colorectal distension: Seven days (D0) after TNBS injection, colonic sensitivity was assessed on fasted (overnight) animals by measuring the intra-colonic pressure required to induce a behavioral response during colonic distension. To perform distension, a 5-cm balloon was gently inserted into the colon of vigil animals at 10 cm from the anus and the catheter was taped to the base of the tail. […] Pain behavior was characterized by an elevation of the hind part of the animals body and a clearly visible abdominal contraction corresponding to a severe cramp. Two determinations were performed.
# as §1
structure (smiles),measurement,setting,value
Fc1ccccc1Cn1nc(-c2nc(C(F)(F)F)n[nH]2)c2cccnc21 [Compound I-2],"% of activity vs. vehicle, carrageenan paw pressure test",[1],75%
same,"% of activity vs. vehicle, acetic acid test abdominal cramps",[2],59%
same,"% of activity vs. vehicle, kaolin gait score",[3],88%
same,"% of activity vs. vehicle, healthy rats tail flick test",[4],15%
same,"% of activity vs. vehicle, oxaliplatin acetone test (reaction time)",[5],127%
same,"% of activity vs. vehicle, TNBS colorectal distension",[6],43%
